For 21 compounds, IC50 results are on record in patent US5216001A, “Indole derivatives” (H. Lunbeck A/S, priority 1990, dated 1993).

pIC50: −log10 of the molar value. Like-named read-outs stand apart in the source and are kept apart here.

Test [1] has as its target T1, serotonin S2 (5-HT2) receptors (Rattus norvegicus, UniProt P14842).
T1 construct: cortical tissue is dissected and weighed; from tissue; host or cells: cerebral cortex membranes of male Wistar (Mol:Wist) rats
Briefly: inhibition of 3H-ketanserin binding to serotonin S2 (5-HT2) receptors in rat cortex in vitro. The note with it: 3H-ketanserin 0.5 nM, rat cortex membranes, read-out: Binding IC50, 3H Ket. The protocol: Method in Hyttel, Pharmacology & Toxicology, 61, 126-129. 1987.
Male Wistar (Mol:Wist) rats (125-250 g) are sacrifices and cortical tissue is dissected and weighed. The tissue is homogenized (Ultra Turrax, 10 sec.) in 10 ml of ice-cold 50 mM tris buffer pH 7.7 (at 25° C.). The centrifuge glassware used in this step has been rinsed by sonication for 10 min. in ethanol. The homogenate is centrifuged twice at 20,000 g for 10 min. at 4° C. with rehomogenization of the pellet in 10 ml ice-cold buffer. The final pellet is homogenized in 500 vol (w/v) ice-cold buffer.
Incubation tubes kept on ice in triplicate receive 100 μl of drug solution in water (or water for total binding) and 2000 μl of tissue suspension (final tissue content corresponds to 4 mg original tissue). […] After incubation for 30 min. the samples are filtered under vacuum (0-50 mBar) through Whatman GF/F filters (25 mm). The tubes are rinsed with 5 ml ice-cold buffer which are then poured on the filters. Thereafter, the filters are washed with 2×5 ml of buffer. The filters are placed in counting vials and 4 ml of appropriate scintillation fluid (e.g., Picofluor™15) are added. After shaking for 1 h and storage 2 hrs in the dark the content of radioactivity is determined by liquid scintillation counting. Specific binding is obtained by subtracting the nonspecific binding in the presence of 1 μM mianserin. For determination of the inhibition of binding five concentrations of drugs covering 3 decades are used.
The IC50 value is determined as the concentration at which the binding is 50% of the total binding in control samples minus the nonspecific binding in the presence of 1 μM mianserin.

Another test concerns the target T2, dopamine D-2 receptors (Rattus norvegicus, UniProt P61169).
T2 construct: striatal tissue is dissected and weighed; from tissue; host or cells: corpus striatum membranes of male Wistar rats
Briefly: inhibition of 3H-spiperone binding to dopamine D-2 receptors in rat corpus striatum in vitro. On the procedure:
INHIBITION OF ^3 H-SPIPERONE BINDING TO DOPAMINE D-2 RECEPTORS IN RAT CORPUS STRIATUM IN VITRO
By this method the inhibition by drugs of the binding of ^3 H-spiperone (0.5 nM) to dopamine D-2 receptors in membranes from rat corpus striatum is determined in vitro. Method and results in Hyttel and Larsen, J. Neurochem, 44, 1615-1622, 1985).
Male Wistar (Mol:Wistar) rats (125-250 g) are sacrificed and striatal tissue is dissected and weighed. The tissue is homogenized (Ultra Turrax, 10 sec.) in 10 ml of ice-cold 50 mM K-phosphate buffer pH 7.4 (at 25° C.). The homogenate is centrifuged twice at 20,000 g for 10 min. at 4° C. with rehomogenization of the pellet in 10 ml ice-cold buffer. The final pellet is homogenized in 1300 vol (w/v) ice-cold buffer.
Incubation tubes kept on ice in triplicate receive 100 μl of drug solution in water (or water for total binding) and 4000 μl of tissue suspension (final tissue content corresponds to 3.08 mg original tissue). The binding experimental is initiated by addition of 100 μl of ^3 H-spiperone (final concentration 0.5 nM) and by placing the tubes in a 37° C. water bath. After incubation for 10 min. the samples are filtered under vacuum (0-50 mBar) through Whatman GF/F filters (25 mm). The tubes are rinsed with 5 ml ice-cold buffer which are then poured on the filters. Thereafter, the filters are washed with 2×5 ml of buffer. The filters are placed in counting vials and 4 ml of appropriate scintillation fluid (e.g. Picofluor ™15) are added. After shaking for 1 h and storage 2 hrs in the dark the content of radioactivity is determined by liquid scintillation counting. Specific binding is obtained by subtracting the nonspecific binding in the presence of 10 μM of 6,7-ADTN.
For determination of the inhibition of binding five concentrations of drugs covering 3 decades are used.
England, specific activity 15-25 Ci/mmol.

The mark [2] stands for this setting: 3H-spiperone 0.5 nM, rat corpus striatum membranes, in vitro, read-out: Binding IC50, 3H Spi.

T2 sequence (P61169 whole entry): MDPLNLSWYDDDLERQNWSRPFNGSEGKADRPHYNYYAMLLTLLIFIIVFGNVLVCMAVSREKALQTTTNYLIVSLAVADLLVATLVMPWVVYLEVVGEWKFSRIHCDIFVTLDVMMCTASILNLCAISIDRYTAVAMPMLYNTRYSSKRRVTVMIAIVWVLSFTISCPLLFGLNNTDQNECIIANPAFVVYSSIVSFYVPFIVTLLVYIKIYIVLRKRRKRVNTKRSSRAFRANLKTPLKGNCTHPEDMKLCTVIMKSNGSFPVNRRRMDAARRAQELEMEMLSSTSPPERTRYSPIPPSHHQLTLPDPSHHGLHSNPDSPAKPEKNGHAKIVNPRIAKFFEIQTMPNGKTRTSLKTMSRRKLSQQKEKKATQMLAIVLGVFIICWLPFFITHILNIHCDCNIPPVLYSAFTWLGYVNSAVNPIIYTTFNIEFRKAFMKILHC
T1 sequence (P14842 whole entry): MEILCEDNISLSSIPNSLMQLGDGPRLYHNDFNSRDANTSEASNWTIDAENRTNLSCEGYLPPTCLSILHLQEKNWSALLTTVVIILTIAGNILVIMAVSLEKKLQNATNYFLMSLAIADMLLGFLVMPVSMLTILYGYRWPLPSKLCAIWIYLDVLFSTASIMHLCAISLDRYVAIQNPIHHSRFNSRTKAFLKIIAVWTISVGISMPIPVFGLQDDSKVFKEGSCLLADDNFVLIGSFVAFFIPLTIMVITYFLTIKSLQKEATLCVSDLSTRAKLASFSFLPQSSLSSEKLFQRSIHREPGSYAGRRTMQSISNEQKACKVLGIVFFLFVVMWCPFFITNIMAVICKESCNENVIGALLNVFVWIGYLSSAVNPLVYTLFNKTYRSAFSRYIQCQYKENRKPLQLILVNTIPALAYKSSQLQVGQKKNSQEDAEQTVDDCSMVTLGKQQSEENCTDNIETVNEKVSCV

For `Cc1ccc2c(C3=CCN(CCN4CCN(C(C)C)C4=O)CC3)cn(-c3ccc(F)cc3)c2c1` [Compound 2b, 1-(4-fluorophenyl)-6-methyl-3-[1-[2-[3-(2-propyl)-2-imidazolidinon-1-yl]ethyl]-1,2,3,6-tetrahydropyridin-4-yl]-1H-indole], the results for the pIC50 (in test [1]; at dopamine D-2 receptors) were 8.72 and 7.17, respectively.

With `COc1ccc2c(C3CCN(CCN4CCOC4=O)CC3)cn(-c3ccc(F)cc3)c2c1` [Compound 4j, 1-(4-fluorophenyl)-6-methoxy-3-[1-[2-(2-oxazolidinon-1-yl]ethyl]-4-piperidyl]-1H-indole], the pIC50 is 7.40 in test [1] and 5.96 on dopamine D-2 receptors (setting [2]).

On to `CC(C)N1CCN(CCN2CCC(c3cn(-c4ccc(F)cc4)c4cc(S(C)(=O)=O)ccc34)CC2)C1=O` [Compound 4k, 1-(4-fluorophenyl)-6-methylsulfonyl-3-[1-[2-[3-(2-propyl)-2-imidazolidinon-1-yl]ethyl]-4-piperidyl]-1H-indole], for which the pIC50 in test [1] is 8.05; at dopamine D-2 receptors (setting [2]), 6.22.

For `CC(C)N1CCN(CCN2CCC(c3cn(-c4ccc(F)cc4)c4cc(C#N)ccc34)CC2)C1=O` [Compound 5i, 6-cyano-1-(4-fluorophenyl)-3-[1-[2-[3-(2-propyl)-2-imidazolidinon-1-yl]ethyl]-4-piperidyl]-1H-indole], the pIC50 was 8.07 in test [1] and 5.96 at dopamine D-2 receptors (setting [2]).

Regarding `N#Cc1ccc2c(C3CCN(CCN4CCNC4=O)CC3)cn(-c3ccc(F)cc3)c2c1` [Compound 5j, 6-cyano-1-(4-fluorophenyl)-3-[1-[2-(2-imidazolidinon-1-yl)ethyl]-4-piperidyl]-1H-indole], the figures for the pIC50 (in test [1]; on dopamine D-2 receptors (setting [2])) were 7.89 and 5.82, respectively.

For the compound `CC(C)N1CCN(CCN2CCN(c3cn(-c4ccc(F)cc4)c4cc(Cl)ccc34)CC2)C1=O` [Compound 6a, 6-chloro-1-(4-fluorophenyl)-3-[4-[2-[3-(2-propyl)-2-imidazolidinon-1-yl]ethyl]-1-piperazinyl]-1H-indole], the pIC50 in test [1] was 8.57; on dopamine D-2 receptors (setting [2]), 7.09.

As to `CCN(CCN1CCC(c2cn(-c3ccc(F)cc3)c3cc(Cl)ccc23)CC1)C(=O)NC(C)C` [Compound 9d, 6-chloro-1-(4-fluorophenyl)-3-[1-[2-[1-ethyl-3-(2-propyl)-1-ureido]-1-ethyl]-4-piperidyl]-1H-indole], the figures for the pIC50 (in test [1]; at dopamine D-2 receptors (setting [2])) were 8.72 and 6.82, respectively.

In the case of `CCOC(=O)NCCN1CCC(c2cn(-c3ccc(F)cc3)c3cc(Cl)ccc23)CC1` [Compound 9k], the pIC50 in test [1] was 8.40.

On to `CN(C)C(=O)NCCN1CCC(c2cn(-c3ccc(F)cc3)c3cc(Cl)ccc23)CC1` [Compound 9l, 6-chloro-3-[1-[2-(3,3-dimethyl-1-ureido)-1-ethyl]-4-piperidyl]-1-(4-fluorophenyl)-1H-indole], for which the pIC50 in test [1] was 8.89.

For the compound `Fc1ccc(-n2cc(C3CCN(CCN4CCNC4=S)CC3)c3ccc(Cl)cc32)cc1` [Compound 12a, 6-chloro-1-(4-fluorophenyl)-3-[1-[2-(2-imidazolidinthion-1-yl)ethyl]-4-piperidyl]-1H-indole], the pIC50 in test [1] was 8.21.

On to `Cc1ccc2c(C3CCN(CCN4CCN(C(C)C)C4=O)CC3)cn(-c3cccs3)c2c1` [Compound 15b, 6-methyl-3-[1-[2-[3-(2-propyl)-2-imidazolidinon-1-yl]ethyl]-4-piperidyl]-1-(2-thie-nyl)-1H-indole], for which the pIC50 in test [1] was 8.17; on dopamine D-2 receptors (setting [2]), 5.60.

As for `Cc1ccc2c(C3CCN(CCN4CCN(C(C)C)C4=O)CC3)cn(-c3ccoc3)c2c1` [Compound 15d, 1-(3-furanyl)-6-methyl-3-[1-[2-[3-(2-propyl)-2-imidazolidinon-1-yl]ethyl]-4-piperi-dyl]-1H-indole], the negative-log IC50 (pIC50) in test [1] is 8.03; at dopamine D-2 receptors (setting [2]), 5.35.

Turning to `Cc1ccc2c(C3CCN(CCN4CCN(C(C)C)C4=O)CC3)cn(-c3ccncc3)c2c1` [Compound 15e, 6-methyl-3-[1-[2-[3-(2-propyl)-2-imidazolidinon-1-yl]ethyl]-4-piperidyl]-1-(4-pyri-dyl)-1H-indole], the pIC50 in test [1] was 8.12; on dopamine D-2 receptors (setting [2]), 5.46.

Regarding `Cc1ccc2c(C3CCN(CCN4CCN(C(C)C)C4=O)CC3)cn(-c3cccc(C(F)(F)F)c3)c2c1` [Compound 15i, 3-[1-[2-[3-(2-propyl)-2-imidazolidinon-1-yl]ethyl]-4-piperidyl]-6-methyl-1-(3-trifluoromethylphenyl)-1H-indole], the pIC50 was 6.82 in test [1] and 5.49 on dopamine D-2 receptors (setting [2]).

As for `CC(C)N1CCN(CCN2CCC(c3cn(-c4ccccc4)c4cc(Cl)ccc34)CC2)C1=O` [Compound 15k, 6-chloro-1-phenyl-3-[1-[2-[3-(2-propyl)-2-imidazolidinon-1-yl]ethyl]-4-piperidyl]-1H-indole], in test [1], the pIC50 was 8.35.

`O=C1NCCN1CCN1CCC(c2cn(-c3ccccc3)c3cc(Cl)ccc23)CC1` [Compound 15m, 6-chloro-3-[1-[2-[2-imidazolidinon-1-yl]ethyl]-4-piperidyl]-1-phenyl-1H-indole]: the negative-log IC50 (pIC50) in test [1] is 8.36; at dopamine D-2 receptors (setting [2]), 6.39.

Regarding `CC(C)n1ccn(CCN2CCC(c3cn(-c4ccc(F)cc4)c4cc(Cl)ccc34)CC2)c1=O` [Compound 17a, 6-chloro-1-(4-fluorophenyl)-3-[1-[2-[3-(2-propyl)imidazol-2-on-1-yl]ethyl]-4-piperidyl]-1H-indole], the pIC50 in test [1] is 8.34.

For `O=C1N(CCO)CCN1CCN1CCC(c2cn(-c3ccc(F)cc3)c3cc(Cl)ccc23)CC1` [Compound 18a, 6-chloro-1(4-fluorophenyl)-3-[1-[2-[3-(2-hydroxyethyl)-2-imidazolidinon-1-yl]e-thyl]-4-piperidyl]-1H-indole], the pIC50 in test [1] is 8.60.

Take `CSc1ccc2c(C3CCN(CCN4CCN(C(C)C)C4=O)CC3)cn(-c3ccc(F)cc3)c2c1` [Compound 19a, 1-(4-fluorophenyl)-6-methylthio-3-[1-[2-[3-(2-propyl)-2-imidazolidinon-1-yl]ethyl]-4-piperidyl]-1H-indole]: the pIC50 in test [1] is 8.49.

For the compound `CC(C)N1CCN(CCN2CCC(C3CN(c4ccc(F)cc4)c4cc(Cl)ccc43)CC2)C1=O` (stereo not drawn) [Compound 21a, 6-chloro-1-(4-fluorophenyl)-3-[1-[2-[3-(2-propyl)-2-imidazolidinon-1-yl]ethyl]-4-piperidyl]-2,3-dihydro-1H-indole], in test [1], the pIC50 was 8.02.

Regarding `Cc1c(C2=CCN(CCN3CCNC3=O)CC2)c2ccccc2n1-c1ccc(F)cc1` [Compound 24b, 1-(4-fluoropheyl)-3-[1-[2-(2-imidazolidinon-1-yl)ethyl]-1,2,3,6tetrahydropyridin-4-yl]-2-methyl-1H-indole], the pIC50 in test [1] is 9.00.

One may read the pIC50 as the negative decadic logarithm of the IC50, by convention in mol/L.
